Among the data in PMC6950716, “Bioactive Secondary Metabolites from the Culture of the Mangrove-Derived Fungus Daldinia eschscholtzii HJ004” (Marine Drugs, 2019) are IC50 values, retold here.

The structures appear in SMILES notation. In brackets after ≈: the same amount, converted by molar mass.

This assay has as its target α-glucosidase. The experiment in a line: α-glucosidase inhibition assay in 96-well plates (modified Sawada et al.). Type of assay: biochemical.

Broadly, the IC50 is the point on the concentration scale where inhibition reaches its midpoint. Read a low IC50 as inhibition by little substance. Compound `COC1=CC(=O)c2c(cc3c(c2O)COC3)C1=O` [compound 4, 5-hydroxy-2-methoxynaphtho[9–c]furan-1,4-dione] came in with an IC50 of 5.7 µg/mL (≈ 23.2 µM).
For `COc1cccc2cc(C(C)=O)oc12` [compound 7, 2-acetyl-7-methoxybenzofuran] the value was 1.1 µg/mL (≈ 5.78 µM).
